Patent US10758549B2, “Compositions of obeticholic acid and methods of use” (Intercept Pharmaceuticals, Inc., priority 2015, dated 2020)
“And” between values parts separate entries of the source, which are not always exact repeats. Identical values can stand only once.

How the values were obtained:
[1] = biological target: T1, farnesoid X receptor (FXR) (Homo sapiens, UniProt Q96RI1); settings: in vitro / on FXR; cited from earlier work
T1 sequence (Q96RI1 1-486): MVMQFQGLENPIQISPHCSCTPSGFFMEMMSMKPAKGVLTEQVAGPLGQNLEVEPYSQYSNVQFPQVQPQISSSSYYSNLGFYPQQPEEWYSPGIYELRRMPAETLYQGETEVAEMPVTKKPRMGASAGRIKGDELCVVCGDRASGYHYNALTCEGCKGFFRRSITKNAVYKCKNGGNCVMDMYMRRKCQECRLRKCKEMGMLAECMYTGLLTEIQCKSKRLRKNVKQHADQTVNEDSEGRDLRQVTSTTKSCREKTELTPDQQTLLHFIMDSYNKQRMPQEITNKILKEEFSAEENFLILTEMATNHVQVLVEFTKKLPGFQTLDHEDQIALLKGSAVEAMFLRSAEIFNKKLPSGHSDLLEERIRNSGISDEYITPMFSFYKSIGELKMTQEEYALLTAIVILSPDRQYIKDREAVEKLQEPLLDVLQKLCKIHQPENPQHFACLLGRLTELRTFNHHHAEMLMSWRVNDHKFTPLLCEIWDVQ

[2] = Particle size distribution, dry dispersion laser diffraction (Sympatec); type: physicochemical; settings: for D10 / D25 / D50 / D75 / D90 / D95: in µm (unit assumed); for PSD X10 / PSD X50 / PSD X90: spiral jet mill, JetPharma
Method: Particle size of agglomeration was identified as playing a primary role in the release rate and dissolution and variability in the blend uniformity and content uniformity of the tablet formulations. In order to obtain an appropriate particle size distribution (PSD), milling of obeticholic acid was investigated. The particle size of the formulations was reduced using comilling and jet milling to improve its dissolution release profile. Particle size analysis was performed using a dry dispersion method and analyzed by laser diffraction using Sympatec equipment.
Particle size distribution was assessed using a dry dispersion method analyzed by laser diffraction using a Sympatec Laser Helos/KF-Magic F71000 with Rodos Dispersing Unit. The OCA sample (0.5 g sample) was tested as a dry powder. The parameters for the validated particle size analysis method are described below:
Apparatus: Sympatec Laser Helos/KF-Magic F71000 with Rodos Dispersing Unit, Vibri sampling unit with Sniffer rotation, Nilfisk exhaustion or equivalent.
Dispersing principle: Dry.

Surface area by BET = type: physicochemical
Method: The impact of jet-milling on API particle size and surface area is detailed in Table 4-1 and Table 4-2, respectively. Surface area was tested per a BET (Brunauer, Emmett, and Teller theory). The BET method for analyzing surface area is based on adsorption of gas on a surface. The amount of gas adsorbed at a given pressure allows a determination of the surface area.

[3] = Before jet-milling (unmicronized)

## CCC1C(O)C2C3CCC(C(C)CCC(=O)O)C3(C)CCC2C2(C)CCC(OC3OC(C(=O)O)C(O)C(O)C3O)CC12 (stereo not drawn) [3-glucuronide]
[1]
  pharmacological activity relative to OCA (parent drug): minimal pharmacologic activity

## CC[C@H]1[C@@H](O)[C@@H]2[C@H](CC[C@]3(C)[C@@H]([C@H](C)CCC(=O)O)CC[C@@H]23)[C@@]2(C)CC[C@@H](O)C[C@@H]12 [Comilled with 0.46 mm screen]
[2]
  D10: 5.7
  D25: 122.9
  D50: 217.5
  D75: 283.0
  D90: 335.1
  D95: 360.3

## CC[C@H]1[C@@H](O)[C@@H]2[C@H](CC[C@]3(C)[C@@H]([C@H](C)CCC(=O)O)CC[C@@H]23)[C@@]2(C)CC[C@@H](O)C[C@@H]12 [Comilled with 0.61 mm screen]
[2]
  D10: 5.5 and 4.1
  D25: 106.6 and 102.2
  D50: 223.2 and 263.1
  D75: 320.8 and 351.0
  D90: 393.8 and 410.9
  D95: 429.8 and 447.9

## CC[C@H]1[C@@H](O)[C@@H]2[C@H](CC[C@]3(C)[C@@H]([C@H](C)CCC(=O)O)CC[C@@H]23)[C@@]2(C)CC[C@@H](O)C[C@@H]12 [Comilled with 1.14 mm screen]
[2]
  D10: 7.9
  D25: 73.9
  D50: 239.3
  D75: 340.8
  D90: 412.0
  D95: 452.7

## CC[C@H]1[C@@H](O)[C@@H]2[C@H](CC[C@]3(C)[C@@H]([C@H](C)CCC(=O)O)CC[C@@H]23)[C@@]2(C)CC[C@@H](O)C[C@@H]12 [JP1307001]
[2]
  PSD X10: X10: 1 μm
  PSD X50: X50: 5 μm
  PSD X90: X90: 20 μm

## CC[C@H]1[C@@H](O)[C@@H]2[C@H](CC[C@]3(C)[C@@H]([C@H](C)CCC(=O)O)CC[C@@H]23)[C@@]2(C)CC[C@@H](O)C[C@@H]12 [JP1408001]
[2]
  PSD X10: X10: 1 μm
  PSD X50: X50: 5 μm
  PSD X90: X90: 19 μm

## CC[C@H]1[C@@H](O)[C@@H]2[C@H](CC[C@]3(C)[C@@H]([C@H](C)CCC(=O)O)CC[C@@H]23)[C@@]2(C)CC[C@@H](O)C[C@@H]12 [JP1408002]
[2]
  PSD X10: X10: 1 μm
  PSD X50: X50: 4 μm
  PSD X90: X90: 14 μm

## CC[C@H]1[C@@H](O)[C@@H]2[C@H](CC[C@]3(C)[C@@H]([C@H](C)CCC(=O)O)CC[C@@H]23)[C@@]2(C)CC[C@@H](O)C[C@@H]12 [JP1408003]
[2]
  PSD X10: X10: 1 μm
  PSD X50: X50: 4 μm
  PSD X90: X90: 15 μm

## CC[C@H]1[C@@H](O)[C@@H]2[C@H](CC[C@]3(C)[C@@H]([C@H](C)CCC(=O)O)CC[C@@H]23)[C@@]2(C)CC[C@@H](O)C[C@@H]12 [Jet mill, classifier speed 2000 rpm]
[2]
  D16: 2.3 µm
  D84: 57.2 µm
  D99: 97.9 µm
  D10: 1.7
  D50: 10.9
  D90: 69.3

## CC[C@H]1[C@@H](O)[C@@H]2[C@H](CC[C@]3(C)[C@@H]([C@H](C)CCC(=O)O)CC[C@@H]23)[C@@]2(C)CC[C@@H](O)C[C@@H]12 [Jet mill, classifier speed 4000 rpm]
[2]
  D16: 1.6 µm
  D84: 17 µm
  D99: 36 µm
  D10: 1.3
  D50: 3.8
  D90: 21.7

## CC[C@H]1[C@@H](O)[C@@H]2[C@H](CC[C@]3(C)[C@@H]([C@H](C)CCC(=O)O)CC[C@@H]23)[C@@]2(C)CC[C@@H](O)C[C@@H]12 [Jet mill, classifier speed 5000 rpm]
[2]
  D16: 1.7 µm
  D84: 15.2 µm
  D99: 55.8 µm
  D10: 1.3
  D50: 4.2
  D90: 18.9

## CC[C@H]1[C@@H](O)[C@@H]2[C@H](CC[C@]3(C)[C@@H]([C@H](C)CCC(=O)O)CC[C@@H]23)[C@@]2(C)CC[C@@H](O)C[C@@H]12 [Jet mill, classifier speed 10000 rpm]
[2]
  D16: 1.4 µm
  D84: 4.7 µm
  D99: 9 µm
  D10: 1.1
  D50: 2.7
  D90: 5.6

## CC[C@H]1[C@@H](O)[C@@H]2[C@H](CC[C@]3(C)[C@@H]([C@H](C)CCC(=O)O)CC[C@@H]23)[C@@]2(C)CC[C@@H](O)C[C@@H]12 [OCA Example # 1]
[2]; After jet-milling (micronized)
  Dv (10): 0.7 µm
  Dv (50): 6.1 µm
  Dv (90): 18.8 µm
  Dv (99): 30.8 µm
[2]; [3]
  Dv (10): 2.6 µm
  Dv (50): 26 µm
  Dv (90): 162 µm
  Dv (99): 419 µm
Surface area by BET; After jet-milling (micronized)
  Surface Area (m^2/kg): 3178 m^2/kg
Surface area by BET; [3]
  Surface Area (m^2/kg): 1557 m^2/kg

## CC[C@H]1[C@@H](O)[C@@H]2[C@H](CC[C@]3(C)[C@@H]([C@H](C)CCC(=O)O)CC[C@@H]23)[C@@]2(C)CC[C@@H](O)C[C@@H]12 [OCA Example # 2]
[2]; After jet-milling (micronized)
  Dv (10): 0.6 µm
  Dv (50): 4.4 µm
  Dv (90): 17.8 µm
  Dv (99): 34.6 µm
[2]; [3]
  Dv (10): 1.8 µm
  Dv (50): 19 µm
  Dv (90): 231 µm
  Dv (99): 509 µm
Surface area by BET; After jet-milling (micronized)
  Surface Area (m^2/kg): 3848 m^2/kg
Surface area by BET; [3]
  Surface Area (m^2/kg): 1854 m^2/kg

## CC[C@H]1[C@@H](O)[C@@H]2[C@H](CC[C@]3(C)[C@@H]([C@H](C)CCC(=O)O)CC[C@@H]23)[C@@]2(C)CC[C@@H](O)C[C@@H]12 [OCA Example # 3]
[2]; After jet-milling (micronized)
  Dv (10): 0.7 µm
  Dv (50): 4.9 µm
  Dv (90): 14.1 µm
  Dv (99): 25.9 µm
[2]; [3]
  Dv (10): 5.3 µm
  Dv (50): 39 µm
  Dv (90): 221 µm
  Dv (99): 513 µm
Surface area by BET; After jet-milling (micronized)
  Surface Area (m^2/kg): 3412 m^2/kg
Surface area by BET; [3]
  Surface Area (m^2/kg): 809 m^2/kg

## CC[C@H]1[C@@H](O)[C@@H]2[C@H](CC[C@]3(C)[C@@H]([C@H](C)CCC(=O)O)CC[C@@H]23)[C@@]2(C)CC[C@@H](O)C[C@@H]12 [Unmilled API (no comil)]
[2]
  D10: 4.8 and 3.3
  D50: 218.6 and 167.7
  D75: 335.7 and 273.7
  D90: 427.6 and 355.6
  D95: 472.6 and 398.2
[2]; listed as Unmilled API
  D10: 4.8
  D50: 218.6
  D90: 427.6
